Measured values published in a melting point compilation (Tetko et al.; mined from patent text by program, amines drawn as free bases though some values may be those of a salt).

Compound | melting point
C#CCC(C)(C(=O)O)C(=O)O | 135 °C
COc1ccc(-c2cc(NC(=O)Nc3ccc(Cl)cc3)on2)cc1 | 165 to 170 °C
O=C(O)c1ccc(Cl)c2c1CCNCC2 | 144 to 149 °C
Clc1ccccc1-c1nc(Cl)c2ccccc2n1 | 127 to 129 °C
CCCN(c1ccncc1)n1cc(C)c2cc(OCc3ccccc3)ccc21 | 165 to 167 °C
COc1nc(N)nc2c1ncn2CCC(CO)CO | 84 to 86 °C
O=C(Nc1ccc(F)c(C(F)(F)F)c1)Nc1ccc(OCc2ccccc2)cc1O | 188 to 191 °C
CCCCCCCCCCOC(C)c1ccc(C(=O)O)cc1 (single isomer, unassigned; (+)) | 56.6 to 57.5 °C
Cn1c2ccccc2c2c3c(c4c5cc(O)ccc5n(CCC#N)c4c21)C(=O)NC3=O | 303 to 306 °C
Cc1c(C(F)(F)F)cnn(-c2cc(OCC=O)c(Cl)cc2F)c1=O | 107 °C
OCCSc1ccc2cc(SCCO)ccc2c1 | 113 to 117 °C
CN1CCN(c2nc3sc4c(NCCN5CCOCC5)ncnc4c3c3c2CCC(C)(C)C3)CC1 | 150 to 151 °C
COc1ccc(S(=O)(=O)Nc2cccc3c2Nc2ccc(C#N)cc2CN3)cc1 | 105 to 107 °C
Cc1c(C(F)(F)C(F)(F)F)ncn1-c1ncc(C(F)(F)F)cc1Cl | 71 °C
COCOc1c(C)c(OC)c(OCOC)c(CCCCCc2c(OC)c(OCOC)c(C)c(OC)c2OCOC)c1OC | 83 to 84 °C
Cc1ccc2c(c1)C=Cc1cc(C)ccc1C2c1cn(-c2ncc(C(=O)O)c(NCC(=O)O)n2)c(=O)[nH]c1=O | 271 °C
CCCCc1oc2ccccc2c1C(=O)NCc1ccc2c(-c3ccc(C)cc3)c(O)ccc2c1 | 103 to 105 °C
O=C(Nc1ccncc1)c1ccc(OC(F)F)c2oc3ccc(C(F)(F)F)cc3c12 | 228 °C
COc1cc2c(cc1OC)C(c1cccc(C(F)(F)F)c1)=NN=C(C)C2 | 134 to 135 °C
COc1ccc2c(c1)c(-c1cc3c(C(=O)N4CCOCC4)ccnc3[nH]1)cn2C | 259 to 260 °C
O=C(Nc1ccc(-n2nc(C(F)(F)F)cc2Br)cc1)c1ccncc1Cl | 79 to 82 °C
CCOP(=O)(/C=C/c1cn(-c2ccccc2)nc1OCc1ccc(OCc2nc(-c3cccc(CC(=O)O)c3)oc2C)c(OC)c1)OCC | 174 to 175 °C
CN1Cc2c(-c3nc(C4CC4)no3)ncn2-c2cccc(Cl)c2C1=O | 183 to 184 °C

Compound | melting point
CNc1nc(C)c(-c2nc3ccccc3c(=O)n2-c2cccc(C)c2)s1 | > 275 °C
CC(C)(CNc1ccnc2cc(Cl)ccc12)NCc1ccc(Cl)c(C(F)(F)F)c1 | 158 to 160 °C
CC1SC(=O)NN=C1c1ccc2c(c1)C(=Cc1cccnc1)C(=O)N2 (stereo not given) | 285 °C
COC(=O)CC[C@H](NC(=O)c1ccc(NCCc2c(N(C(C)=O)C(C)=O)nc(NC(C)=O)[nH]c2=O)cc1)C(=O)OC | 168 to 178 °C
O=C(O)C(OCCC1CCN(c2ccncc2)CC1)Oc1ccccc1 (stereo not given) | 247 to 249 °C
O=C(NCCCCN1CCCC1)Nc1snc(OCc2c(F)cc(Br)cc2F)c1C(=O)O | 208 °C
Cc1c(-c2ccc(C=CC(=O)OC(C)(C)C)cc2)nc2n1CCc1ccccc1C2OC1CCN(C)CC1 (stereo not given) | 185 °C
Nc1ccc(Sc2ccccn2)cn1 | 121 °C
CC(C)(C1OCCO1)C(O)C(Cc1ccc(Cl)cc1Cl)n1cncn1 (stereo not given) | 178 to 181 °C
CCCCOc1ncc(I)cc1C(N)=S | 140 to 148 °C
O=c1c(Cc2ccncc2)cc2cccnc2n1-c1cccc([N+](=O)[O-])c1 | 230 °C
COc1cc2c(Nc3ccc(Sc4nccn4C)c(Cl)c3)c(C#N)cnc2cc1-c1csc(CN2CCN(C)CC2)c1 | 162 to 164 °C
CC1CN(c2ccccn2)CCN1Cc1nc2ccccc2[nH]1 (stereo not given) | 151 to 153 °C
COC(=O)C(=O)c1oc2cccc(OCc3ccc(F)cc3)c2c1O | 138 to 141 °C
CC(C)(C)NC(=O)C#CBr | 113 °C
CCOC(=O)c1sc(Oc2ccc(Cl)cc2Cl)nc1-c1cccc(C(F)(F)F)c1 | 72 to 73 °C
COc1ccc(N2C(=O)N(c3ccc(OC)cc3)C(C)c3cnc(Nc4ccccc4)nc32)cc1 (stereo not given) | 228 to 234 °C
CC(=O)c1ccc2c(C(=O)c3ccc(OCCN4CCCCC4)cc3)c(-c3ccc(O)cc3)sc2c1 | 97 to 100 °C
CCOC(=O)c1ccc(C(=O)NNC(=O)c2ccc(C(=O)OCC)cc2)cc1 | 191 to 195 °C
CCCC1COC(Cn2nc[nH]c2=S)(c2ccc(Cl)cc2Cl)O1 (stereo not given) | 128 °C
O=[N+]([O-])c1ccc(Sc2ccccc2)cc1OCc1ccccc1 | 77 to 79 °C
CN(C)C=Cc1ccc([N+](=O)[O-])c(OCc2ccccc2)c1 | 111 to 114 °C
CC(C)C(=O)OC1C(CO)OC(n2cnc3c(N)ncnc32)C1OC(=O)C(C)C (stereo not given) | 207 to 208 °C

Compound | melting point
CCCCNC(=S)N1CCc2cc(S(=O)(=O)N3CC(c4ccccc4)NC3=O)ccc21 (stereo not given) | 186 to 188 °C
COc1ccc(-c2cc(CN3CCN(C)CC3)c(=O)n(Cc3ccc(F)c(F)c3)n2)cc1F | 135 to 136 °C
C/C=C/C1CCC2c3ccc(OCC)c(F)c3OC2C1 (stereo not given) | 145 °C
N#Cc1ccc2[nH]c3ccccc3c2c1 | 180 to 181 °C
COc1ccc(C2=Cc3ccc(OCc4ccccc4)cc3OC2)cc1 | 152 to 154 °C
CCC1CC2C3CCC4=C(CCC(=O)C4)C3=CCC2(CC)C1OC(C)=O (stereo not given) | 123 to 127 °C
COCCOc1ccc(C=O)cc1O | 74 to 75 °C
O=C1c2ccccc2C(=O)N1CCCCN(CCCCN1C(=O)c2ccccc2C1=O)CCOc1cccc2c1SCCC2 | 66 °C
O=C(O)COc1c(Cl)cc(F)cc1Cl | 155 to 158 °C
O=C1C=C(c2ccc(Cl)c(S(=O)(=O)N3CCCC3)c2)OC1 | 108 to 111 °C
O=C(C=Cc1ccc(F)cc1)N1CCOCC1 | 136 to 137 °C
CCOc1ccc2c(c1)CC(=O)N2C1CCCCO1 (stereo not given) | 108 to 110 °C
CC(=O)Nc1ccc(OC(=O)CO)cc1 | 144 to 146 °C
CS(=O)(=O)c1ccc(CC(=O)c2ccc(F)cc2)cc1 | 182 to 183 °C
COC(=O)c1[nH]c2ccc(OC)cc2c1SC | 128 to 130 °C
CC(C)Nc1cccnc1N1CCN(C(=O)c2ccc(C(=O)NCCN(C)C)cc2)CC1 | 133 °C
CCSc1nc(C#N)c(C#N)nc1C | 91.5 to 92.5 °C
CCn1nnc2cc3c(=O)n(C(C)Cn4ncnn4)nnc3cc2c1=O (stereo not given) | 174 to 176 °C
O=C(Nn1cnnc1)C1=NN(c2ccc(Cl)cc2Cl)C(c2ccc(Cl)cc2)C1 (stereo not given) | 134 to 138 °C
Cc1c(Cl)cccc1S(=O)(=O)Nc1ccc2onc(C)c2c1 | 163 °C
CC1=NN=C(c2ccc([N+](=O)[O-])cc2)c2cc(Cl)ccc2C1 | 199 to 203 °C

Further lines, results first:

melting point | Compound
183 to 184 °C | CC(C)n1c(=O)sc2cc(N3C[C@H](C(N)=O)OC3=O)ccc21
355 to 358 °C | NC(=O)c1nc(-c2cccc(O)c2)nc2c1[nH]c(=O)n2-c1c(F)cccc1F
151 to 152 °C | CC(C)C(C)(C(=O)O)N1C(=O)c2ccccc2C1=O (stereo not given)
197 to 200 °C | C=CCc1c(O)cccc1C1=NNC(=O)CC1
133 to 135 °C | Cn1cc(-c2cccc(Cl)c2)c(=O)c(-c2cccc(C(F)(F)F)c2)c1
150 °C | CN(C)Cc1c(-c2ccccc2)oc2c(CO)cccc2c1=O
125 to 126 °C | O=C1c2ccccc2C(=O)N1CCN1CCN(C(c2ccc(F)cc2)c2ccc(F)cc2)CC1
190 to 192 °C | Cc1csc2nc(COc3ccccc3)cn12
267 °C | N#Cc1ccc(C(=O)Nc2cccc(C(=O)O)c2)cc1
75 to 77 °C | COc1nc(C(F)(F)C(F)(F)F)c(F)c(=O)n1-c1cc(C(=O)OC(C)C)c(Cl)cc1F
125 to 131 °C | CCc1nc(C)c(CC(=O)N(CC)CC)c(=O)n1Cc1ccc(-c2ccccc2-c2nnn[nH]2)cc1
132 to 135 °C | CC(C)(C)OC(=O)/C(=C/c1ccccc1)C(=O)c1cc2ccccc2cc1O
104 °C | CCN(CC)C(=O)CCC(=O)c1cccc(C)c1N
86 to 88 °C | Cc1cn(C2CC(N=[N+]=[N-])C(C(O)S(C)(=O)=O)O2)c(=O)n(C(=O)c2ccccc2)c1=O (stereo not given)
113 to 114 °C | CC(C#CCCc1ccccc1)N(O)C(N)=O (stereo not given)
180 °C | N#Cc1ncn2c(C(F)(F)F)cc(-c3ccccc3Cl)nc12
230 to 232 °C | Cc1ccc(-c2ccccc2C(=O)Nc2ccc(C(=O)N3C[C@@H]4CCCN4C(=O)c4ccccc43)cc2)cc1

melting point | Compound
80 to 82 °C | COC(=O)CCn1cc(Cc2cccnc2)c2c(CCC(=O)OC(C)(C)C)cccc21
94 to 97 °C | CCN(Cc1ccccc1)c1nc(=O)c2cc(C(F)(F)F)cc([N+](=O)[O-])c2s1
125 to 127 °C | CC(=O)c1cccc(NC(=S)N(C)N)c1
195 to 196 °C | O=C1CSc2ccc3ccccc3c2N1
73 to 76 °C | COc1ccc2c(c1)CC(C)C2=O (stereo not given)
126 °C | CC(=O)Oc1cc(OCC(F)(F)C(F)(F)F)ccc1C(=O)O
147 to 148 °C | CC(=O)Nc1nc(=O)n(C(=O)c2ccc(C)cc2)cc1F
121 to 122 °C | Cc1c(C)c2c(c(C)c1NC(=O)OC(C)(C)C)C(c1ccc(C(C)C)cc1)CO2 (stereo not given)
106 °C | C#CCn1c(C(F)(F)F)c(C=O)c2ccccc21
277 to 281 °C | CC(C)(CO)n1cnc2c(N)nc3ccccc3c21
56 to 57 °C | COCC(=O)N(CC(C)=O)c1c(C)cccc1C
161 to 162 °C | Cc1c(-c2ccc(F)cc2)nc(-c2ccccc2)n1C(C)C
164 to 165 °C | C[Si](C)(C)CCCNc1ccc(C(=O)O)cc1
152 to 153 °C | C[C@H](CSC(=O)c1ccc(Cl)c(S(N)(=O)=O)c1)C(=O)O
185 to 187 °C | CC(C)(C)c1cccc2c1C(=O)NS2(=O)=O
163 to 165 °C | CCC#CCCOc1cc(/C=C/C(=O)Nc2ccccc2C(=O)O)ccc1OC
